Assay results reported in US9682050B2, “Methods of treating lactose intolerance” (Nogra Pharma Limited, priority 2012, dated 2017).

Legend:
[1] = test system: human lactase gene; assay: Lactase mRNA expression (qPCR) in Caco-2 cells stimulated with PPAR agonists; assay type: cell-based; details: for LCT gene expression in Caco2 cells: summary statement
Protocol: Caco-2 colonic adenocarcinoma cell lines were used. Caco-2 cells grew in Dulbecco's modified Eagle's medium (DMEM, Invitrogen, Cergy-Pontoise, France) supplemented with 20% foetal calf serum (FCS, Dutscher, Brumath, France), 1% penicillin-streptomycin (5 ml/l) (Invitrogen) and 1% non-essential amino acids (5 ml/l) (Invitrogen). All cell lines were cultured as confluent monolayers at 37° C. in a controlled, 5% CO2 atmosphere. Each week, the confluent monolayer were trypsinized (Invitrogen) and then replated after a 1:10 dilution. For the stimulation experiments, cells were placed in 6-well plates at a density of 1×10^6 cells per well. Serum deprivation was used 16 hours prior to stimulation in order to synchronize the cells.
The cells were treated with Compound 34 (1 mM and 30 mM), 5-ASA (30 mM), or pioglitazone (1 μM). When necessary, the vehicle DMSO (Sigma) is used as control (Ctrl). After 24 hrs of stimulation, the wells were rinsed three times with sterile PBS at 4° C. The cells were then lysed with lysis buffer (RA1, Macherey-Nagel) containing 1% β-mercaptoethanol. The plates were frozen at −80° C. for subsequent RNA extraction. A time course experiment consisting of stimulation of Caco-2 cells by compound 34, 1 mM during 6 hrs and 12 hrs was also done in order to compare gene expression according treatment duration.
Total RNA were extracted with a Nucleospin RNA kit (Macherey-Nagel, Hoerdt, France). After RNAse inactivation, the total RNA was cleaned of trace genomic DNA via a DNAse treatment and eluted in RNAse-free, DEPC-free water. The purity of the RNA will be evaluated by UV spectroscopy on a Nanodrop system from 220 to 350 nm. Before microarray experiment, RNAs were also profiled on an Agilent 2100 bioanalyzer. One μg of total RNA were used in the microarray analysis (minimum concentration: 50 ng/μl).
(§1) Transcripts of genes were estimated by quantitative PCR (qPCR) in order to confirm microarrays results. 1 μg of total RNA was reverse-transcripted into cDNA using the High Capacity cDNA Achive kit (Applied biosystems). qPCR was performed using an ABI PRISM 7000 sequence detection system (Applied Biosystem). Primer pairs for each transcript were chosen with qPrimer depot software. Quantification of qPCR signals was performed using ΔCt relative quantification method using GAPDH as a reference gene. The values were represented in terms of relative quantity of mRNA level variation or fold increase compared to control conditions.
Each experiment has been done at least twice. The lactase gene expression was first confirmed to be stimulated by compound 34 at two different concentrations (1 mM, fold increase 4.78, p=0.0002; 30 mM, fold increase 7.9, p=0.0006) (FIG. 4A).

[2] = test system: PPAR semi deficient epithelial cells; assay: LCT gene expression in PPAR knock down (ShPPAR) Caco-2 cells; assay type: cell-based, human
Protocol: as §1
PPARγ knock down IECs were obtained using the pSUPER.retro system (OligoEngine). Forward and reverse target sequences corresponding to nucleotides 105-123 of the human PPARg mRNA (5-′-GCCCTTCACTACTGTTGAC-3′ (SEQ ID NO: 1)) were cloned into the BglII/XhoI restriction sites of the pSUPERretro vector (pRS) giving the ShPPAR construct. A negative control pRS plasmid containing the sequence 5′-ACGCTGAGTACTTCGAAAT-3′ (SEQ ID NO: 2) targeted against the luciferase gene was also generated (ShLuc construct). Both constructions were transfected in Caco-2 cells using Nucleofector technology from Amaxa Biosystems, according to the manufacturer's protocol. […] The silencing of PPARg expression was checked by quantitative RT-PCR and western-blot analysis. […]

| Structure (SMILES) | lactase gene expression, fold increase ([1]; 30 mM, 24 hrs, Caco-2 cells) [fold] | LCT gene expression in Caco2 cells [1] | LCT gene expression in PPAR semi deficient epithelial cells [2] | lactase mRNA expression, fold increase ([1]; 1 μM, 24 hrs, Caco-2 cells) [fold] |
| --- | --- | --- | --- | --- |
| Nc1ccc(O)c(C(=O)O)c1 [5ASA, 5-amino salicyclic acid] | 12.69 | enhance LCT gene expression | kept their upregulatory effects | – |
| CCc1ccc(CCOc2ccc(CC3SC(=O)NC3=O)cc2)nc1 (centres unmarked) [pioglitazone] | – | enhance LCT gene expression | – | 11.76 |
